{"source": "patent US10149852B2", "about": "“Use of sodium channel blockers for the treatment of neuropathic pain developing as a consequence of chemotherapy” (priority 2006, dated 2018)", "key": {"[1]": {"system": "paclitaxel-induced thermal hyperalgesia"}, "[2]": {"system": "paclitaxel-induced cold allodynia"}, "[3]": {"system": "paclitaxel-induced mechanical allodynia"}, "[4]": {"system": "paclitaxel induced orofacial allodynia"}, "[5]": {"system": "paclitaxel induced paw allodynia"}, "[6]": {"system": "paclitaxel induced paw hyperalgesia"}, "[7]": {"system": "Chemotherapy Induced Neuropathic Pain (CINP)", "design": "species or system Human Subjects", "conditions": "in vivo"}, "[8]": {"design": "species or system Human Subjects", "conditions": "in vivo"}, "[9]": {"system": "paclitaxel-induced painful peripheral neuropathy", "design": "species or system CD-1 mice", "conditions": "mouse, in vivo, sc"}, "[10]": {"conditions": "in vivo; cited from earlier work"}, "[11]": {"conditions": "paclitaxel 2 mg/kg i.p. once daily 5 days"}, "[12]": {"conditions": "paclitaxel 1 mg/kg i.p. days 1, 3, 5, 7, rats"}}, "note": "“And” between values parts separate entries of the source, which are not always exact repeats. Equal entries are not always repeated. “Also recorded” adds a separate entry of the source."}
{"molecule": "CC(=O)O[C@H]1C(=O)[C@@]2(C)[C@H]([C@H](OC(=O)c3ccccc3)[C@]3(O)C[C@H](OC(=O)[C@H](O)[C@@H](NC(=O)c4ccccc4)c4ccccc4)C(C)=C1C3(C)C)[C@]1(OC(C)=O)CO[C@@H]1C[C@@H]2O", "note": "[paclitaxel, Paclitaxel, reference compound]", "values": [{"measurement": "time of maximal thermal hyperalgesia after the first injection", "setting": "[1]; [11]", "value": 7, "unit": "days"}, {"measurement": "paw withdrawal latency in the plantar test vs pre-treatment day", "setting": "[1]; paclitaxel 2 mg/kg i.p. once daily 5 days, all post-treatment days", "value": "significantly reduced"}, {"measurement": "animals that did not develop thermal hyperalgesia on day 7", "setting": "[1]; paclitaxel-treated mice", "value": "Around 9%"}, {"measurement": "animals with increased time licking/biting (paclitaxel-responder animals)", "setting": "[2]; [11]", "value": 67, "unit": "%"}, {"measurement": "time of maximal cold allodynia after the first injection", "setting": "[2]; [11]", "value": "10 to 14", "unit": "days"}, {"measurement": "induction of mechanical allodynia (threshold force, Von Frey test)", "setting": "[3]; paclitaxel 2 mg/kg i.p. during 5 days, day 10", "value": "induced mechanical allodynia"}, {"measurement": "animals showing a reduction of the mechanical threshold", "setting": "[3]; paclitaxel-treated mice", "value": 96, "unit": "%"}, {"measurement": "mechanical threshold (orofacial) vs vehicle-treated group", "setting": "[4]; [12]", "value": "significantly reduced"}, {"measurement": "mechanical threshold (paw) vs vehicle-treated group", "setting": "[5]; [12]", "value": "significantly reduced"}, {"measurement": "thermal latency vs vehicle-treated group", "setting": "[6]; [12]", "value": "significantly reduced"}]}
{"molecule": "Octahydro-12-(Hydroxymethyl)-2-imino-5,9,7,10a-dimethano-10aH-[1,3]dioxocino[6,5-d]pyrimidine-4,7,10,11,12-pentol [TTX]", "values": [{"measurement": "Responders, 30% reduction in average NPRS score from baseline to any 10 consecutive days: No, number of subjects", "setting": "[7]", "value": "17 (68.0%) and 14 (58.3%) and 15 (60.0%) and 11 (42.3%)"}, {"measurement": "Responders, 30% reduction in average NPRS score from baseline to any 10 consecutive days: No, percent", "setting": "[7]", "value": "17 (68.0%) and 14 (58.3%) and 15 (60.0%) and 11 (42.3%)"}, {"measurement": "Responders, 30% reduction in average NPRS score from baseline to any week: No, number of subjects", "setting": "[7]", "value": "16 (64.0%) and 13 (54.2%) and 15 (60.0%) and 11 (42.3%)"}, {"measurement": "Responders, 30% reduction in average NPRS score from baseline to any week: No, percent", "setting": "[7]", "value": "16 (64.0%) and 13 (54.2%) and 15 (60.0%) and 11 (42.3%)"}, {"measurement": "Responders, 30% reduction in average NPRS score from baseline to any week: Yes, number of subjects", "setting": "[7]", "value": "9 (36.0%) and 11 (45.8%) and 10 (40.0%) and 15 (57.7%)"}, {"measurement": "Nervous system disorders, number of subjects", "setting": "[8]", "value": "13 and 16 and 17 and 20"}, {"measurement": "Number of Subjects with at least 1 AE", "setting": "[8]", "value": "21 and 22 and 20 and 24"}, {"measurement": "Paresthesia, number of subjects", "setting": "[8]", "value": "5 and 7"}, {"measurement": "grade 4 AEs", "setting": "[8]", "value": "no grade 4 AEs"}, {"measurement": "number of grade 3 AEs", "setting": "[8]", "value": "four and seven"}, {"measurement": "number of patients with serious adverse effects (SAEs)", "setting": "[8]", "value": "Three"}, {"measurement": "number of subjects with grade 3 AE", "setting": "[8]", "value": "Four"}, {"measurement": "relation of the SAEs to TTX", "setting": "[8]", "value": "two unrelated and one unlikely related"}, {"measurement": "severity of most AEs", "setting": "[8]", "value": "grade 1 or 2; also recorded: mild or moderate"}, {"measurement": "severity of nervous system AEs", "setting": "[8]", "value": "grade 1 or 2 save for one event of grade 3 paresthesia"}, {"measurement": "Hypesthesia oral, number of subjects", "setting": "[8]; po", "value": "5 and 7 and 6 and 10"}, {"measurement": "Oral paresthesia (most common AE), number of patients of 125", "setting": "[8]; po", "value": 37}, {"measurement": "Oral paresthesia (most common AE), percent", "setting": "[8]; po", "value": 29.6, "unit": "%"}, {"measurement": "dose relation of Oral Paresthesia", "setting": "[8]; po", "value": "increasing trend in relation to increasing dose"}, {"measurement": "oral hypesthesia, number of patients of 125", "setting": "[8]; po", "value": 31}, {"measurement": "oral hypesthesia, percent", "setting": "[8]; po", "value": 24.8, "unit": "%"}, {"measurement": "analgesic effects in the model of neuropathic pain", "setting": "[9]", "value": "clear analgesic effects"}, {"measurement": "effect on expression of paclitaxel-induced cold allodynia", "setting": "[2]; mouse, in vivo", "value": "inhibited the expression"}, {"measurement": "days with statistically significant difference vs paclitaxel+saline, duration of licking/biting", "setting": "[2]; mouse, in vivo, sc", "value": "days 10 and 14"}, {"measurement": "days with statistically significant difference vs paclitaxel+saline, frequency of licking/biting", "setting": "[2]; mouse, in vivo, sc", "value": "days 7, 10 and 14"}, {"measurement": "effect on development of paclitaxel-induced cold allodynia (two variables)", "setting": "[2]; mouse, in vivo, sc", "value": "did not significantly affect"}, {"measurement": "effect significantly different from saline, frequency of licking/biting", "setting": "[2]; mouse, in vivo, sc", "value": "only in the animals treated with TTX 6 μg/kg"}, {"measurement": "time after injection with effect significantly different from saline, duration of licking/biting", "setting": "[2]; mouse, in vivo, sc", "value": 1, "unit": "h"}, {"measurement": "effect of a single dose on allodynia in the trigeminal territory", "setting": "[4]; rat, in vivo, sc", "value": "partial but significant decrease"}, {"measurement": "prevention of development of allodynia in the orofacial region", "setting": "[4]; rat, in vivo, sc", "value": "able to prevent the development"}, {"measurement": "effect of a single dose on allodynia in the sciatic territory", "setting": "[5]; rat, in vivo, sc", "value": "partial but significant decrease"}, {"measurement": "prevention of development of allodynia in the paw", "setting": "[5]; rat, in vivo, sc", "value": "able to prevent the development"}, {"measurement": "effect of a single dose on paw hyperalgesia", "setting": "[6]; rat, in vivo, sc", "value": "did not significantly reduce"}, {"measurement": "prevention of development of hyperalgesia in the paw", "setting": "[6]; rat, in vivo, sc", "value": "able to prevent the development"}, {"measurement": "safety profile of the doses", "setting": "[10]", "value": "acceptable safety profile"}]}
